Results on 15 compounds are retold here after US20250011330A1, “Imidazo[1,2- a]pyrazine and Imidazo[1,2- a]pyridine Based Tyrosyl-DNA Phosphodiesterase I (TDP1) Inhibitors” (The USA, As Represented by the Secretary, Department of …, priority 2021, published 2025).

The IC50 is the concentration at which inhibition is half-maximal.

Experiment [1] addresses T1, TDP2 (Homo sapiens (Human), UniProt O95551). Kind of experiment: gel-based TDP2 fluorescence assay in vitro. Type of experiment: biochemical. The conditions noted are these: for IC50: read-out: TDP2 IC50; for inhibition of TDP2, primary screen: 111 μM, preincubation with TDP2 at room temperature overnight. As to the method: (TDP assay buffer: 50 mM Tris HCl, pH 7.5, 80 mM KCl, 2 mM EDTA, 1 mM DTT, 40 μg/ml BSA and 0.01% Tween-20. TDP1 (20 mg/mL in 25 mM Tris-HCl pH 7.2, 150 mM NaCl, 2 mM tris(2-carboxyethyl)phosphine) with 2 mL of well solution composed of 0.1 M MOPS/HEPES pH 7.5, 10% (w/v) PEG 8000, 20% (v/v) ethylene glycol, 0.03 M sodium fluoride, 0.03 M sodium bromide, 0.03 M sodium iodide, 0.03 M sodium bromide and sealed over […] well solution. AF647 labelling buffer: Tris-HCl (pH 7.2, 25 mM), NaCl (150 mM), and tris(2-carboxyethyl)phosphine hydrochloride (TCEP, 2 mM).)
(DNA only: Buffer+DMSO. DMSO only: Enzyme+DMSO. Drug: Enzyme+Drug, 25° C., 10 min+DNA, reaction at 25° C., 15 min.)

In experiment [2] the target is T1, TDP2. Kind of experiment: TDP2 degrading activity as stated in the description. The conditions noted are these: list in description.
The subject of experiment [3] is human colon cancer cell line HCT116. Kind of experiment: Synergistic effect with camptothecin (CPT) based on cell viability. To be noted: for synergy with camptothecin: list in description; for Synergy Score: with camptothecin (CPT), HCT116, 72 h, SynergyFinder 2.0. The procedure: The synergistic effects of the TDP1 inhibitors with CPT were tested in human colon cancer cell line HCT116 based on cell viability (Table 3, FIGS. 2-5). Cells were first seeded in a 384-well black-clear plate until 30% confluency and then incubated with a serial dilution of CPT at the range of 0-100 nM in the present or the absence of TDP1 inhibitors for 72 h at 37° C. Viable cell numbers were counted from the brightfield images taken by Biotek Cytation 5 (FIGS. 2-3). Fractional affect (Fa) and combination index (Ci) were analyzed with CompuSyn software. Synergistic scores of each TDP1 inhibitors were calculated and collected based on the data analysis from SynergyFinder (FIG. 4). […]

Experiment [4] concerns the target T2, TDP1 (Homo sapiens (Human), UniProt Q9NUW8). Put plainly: Degradation assay (western blotting) of TDP1 in HCT116 and HEK293 cells. The format is cell-based. The conditions noted are these: for TDP1 degradation in cells: 200 uM concentration; for TDP1 degrading activity: list in description. As to the method:
The degradation effect of the TDP1 inhibitors on TDP1 in human colon cancer cell line HCT116 and embryonic kidney cell line HEK293 were studied. Cells were first seeded in a 6-well plate until 60-80% confluency and then incubated with a serial dilution of TDP1 inhibitors at the range of 25-200 μM for 24-72 h at 37° C. […] Samples were then sonicated at 30% for 10 s and centrifuged for 15 min at 15000 rpm at 4 Celsius. Supernatant were collected and the concentration of total protein were measured by BCA Protein Assay Kit according to its protocols. Four micrograms of total protein for each sample were loaded and TDP1 level were conducted by western blotting.
Background: In western blotting, separated proteins are transferred to a membrane and probed.

Experiment [5] concerns the target T2, TDP1. Kind of experiment: TDP1 gel-based in vitro fluorescence assay. Type of experiment: biochemical. The conditions noted are these: for IC50: read-out: TDP1 IC50.
Setting [6] is: Table 8, lead compounds with different linkers.
[7] abbreviates: Table 7, HPLC-purified oxime leads.
Setting [8] is: Table 7, ratio of IC50 TDP2 to TDP1.
Setting [9] is: Table 8, ratio of IC50 TDP2 to TDP1.
[10] abbreviates: Table 9, fluorosulfates and sulfonyl fluorides.

Where two headings read alike, the source gives them in different places. A value given as a limit tells only on which side of the number the result lay.

T2 sequence (Q9NUW8 whole entry): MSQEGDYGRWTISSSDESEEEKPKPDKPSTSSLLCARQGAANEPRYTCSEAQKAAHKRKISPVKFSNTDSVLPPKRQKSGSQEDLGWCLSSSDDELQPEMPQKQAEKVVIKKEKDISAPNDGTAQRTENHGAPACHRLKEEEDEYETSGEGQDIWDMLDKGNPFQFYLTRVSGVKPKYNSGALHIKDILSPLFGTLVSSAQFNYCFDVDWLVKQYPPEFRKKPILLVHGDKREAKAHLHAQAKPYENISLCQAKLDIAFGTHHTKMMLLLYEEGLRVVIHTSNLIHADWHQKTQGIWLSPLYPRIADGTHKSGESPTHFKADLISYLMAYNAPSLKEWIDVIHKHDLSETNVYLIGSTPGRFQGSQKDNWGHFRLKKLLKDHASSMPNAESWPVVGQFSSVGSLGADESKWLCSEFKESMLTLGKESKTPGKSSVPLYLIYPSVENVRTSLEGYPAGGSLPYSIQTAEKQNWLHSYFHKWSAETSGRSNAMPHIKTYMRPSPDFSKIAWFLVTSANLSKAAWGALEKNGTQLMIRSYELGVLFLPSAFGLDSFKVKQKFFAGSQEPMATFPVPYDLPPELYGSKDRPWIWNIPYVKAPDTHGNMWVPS
T1 sequence (O95551 whole entry, species assumed): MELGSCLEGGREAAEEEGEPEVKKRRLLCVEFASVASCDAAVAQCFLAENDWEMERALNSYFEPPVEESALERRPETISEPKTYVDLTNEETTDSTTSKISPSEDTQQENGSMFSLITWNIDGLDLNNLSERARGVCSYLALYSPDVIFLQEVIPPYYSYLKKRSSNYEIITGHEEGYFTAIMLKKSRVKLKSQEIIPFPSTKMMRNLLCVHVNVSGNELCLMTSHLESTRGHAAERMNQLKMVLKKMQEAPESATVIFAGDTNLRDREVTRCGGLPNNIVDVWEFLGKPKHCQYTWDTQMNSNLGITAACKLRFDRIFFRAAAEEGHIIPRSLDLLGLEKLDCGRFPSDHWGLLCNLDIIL

With “4-((2-(4-(2-((4-(5-((λ^2-Azaneylidene)-λ^3-methyl)pyridin-2-yl)phenyl)methoxy)ethyl)phenyl)imidazo[1,2-a]pyridin-3-yl)amino)benzoic acid [XZ727]”, the 50% inhibitory concentration (IC50) at TDP2 [1] (setting [6]) was found to be 70.5 ± 13.5 µM. Further, on TDP2 [2], the TDP2 degrading activity result was “exhibit TDP2 degrading activity”.
Consider `O=C(O)c1ccc(Nc2c(-c3ccccc3)nc3ccccn23)cc1C(=O)O` [Compound 10b, 4-((2-Phenylimidazo[1,2-a]pyridin-3-yl)amino)phthalic acid], for which the half-inhibitory concentration (IC50) on TDP2 [1] (Table 3) is greater than 100 µM. For the same compound, in experiment [3], the synergy with camptothecin result was “exhibit synergy with camptothecin” and the “Synergy Score” value is reported as 17.9.
On to `O=C(O)c1ccc(Nc2c(-c3ccccc3)nc3ccccn23)cc1` [XZ615], for which, at TDP1 [4], the “TDP1 degradation in cells” value was “does not” and the TDP1 degrading activity entry is “exhibit TDP1 degrading activity”. Moreover, the 50% inhibitory concentration (IC50) on TDP2 [1] (setting [7]) is greater than 100 µM. The IC50 on TDP2 [1] (setting [6]) is greater than 100 µM.
Consider `O=C(O)c1ccc(Nc2c(-c3ccccc3)nc3cc(-c4ccccc4)ccn23)cc1` [XZ664, 4-((2,7-Diphenylimidazo[1,2-a]pyridin-3-yl)amino)benzoic acid], for which the “TDP1 degradation in cells” value at TDP1 [4] is reported as “shows TDP1 degradation”. In addition, the TDP1 degrading activity entry at TDP1 [4] was “exhibit TDP1 degrading activity”. In addition, the IC50 at TDP2 [1] (Table 3), on TDP2 [1] (setting [7]) and at TDP2 [1] (setting [6]) was greater than 100 µM each time. For the same compound, in experiment [3], the “Synergy Score” value turned out to be 9.1.
As for `O=C(O)c1ccc(Nc2c(-c3ccc(CO/N=C/c4ccc(-c5cnccn5)cc4)cc3)nc3cc(-c4ccccc4)ccn23)cc1` [XZ702, (E)-4-((7-Phenyl-2-(4-((((4-(pyrazin-2-yl)benzylidene)amino)oxy)methyl)phenyl)imidazo[1,2-a]pyridin-3-yl)amino)benzoic acid], the “FC (fold change)” value at TDP1 [5] (setting [8]) turned out to be 3. Further, the concentration for half-maximal inhibition (IC50) at TDP1 [5] (purified oximes and SMM leads) is 3.1 ± 0.5 µM; at TDP2 [1] (setting [7]), 8.8 ± 2.9 µM; on TDP2 [1] (purified oximes) it was 8.8 ± 2.9 µM. The synergy with camptothecin result in experiment [3] is on record as “exhibit synergy with camptothecin”. Also, the TDP2 degrading activity entry at TDP2 [2] was “exhibit TDP2 degrading activity”.
With `O=C(O)c1ccc(Nc2c(-c3ccc(CO/N=C/c4ccc(N5CCCC5=O)cc4)cc3)nc3cc(-c4ccccc4)ccn23)cc1` [XZ703, (E)-4-((2-(4-((((4-(2-Oxopyrrolidin-1-yl)benzylidene)amino)oxy)methyl)phenyl)-7-phenylimidazo[1,2-a]pyridin-3-yl)amino)benzoic acid], the “FC (fold change)” value at TDP1 [5] (setting [8]) is recorded as 1. Further, the half-inhibitory concentration (IC50) on TDP1 [5] (purified oximes and SMM leads) is roughly 10 µM; on TDP2 [1] (setting [7]), 10.9 ± 1.1 µM; at TDP2 [1] (purified oximes) it was roughly 10 µM. At TDP2 [2], the TDP2 degrading activity entry was “exhibit TDP2 degrading activity”.
Turning to `N#Cc1ccc(-c2ccc(/C=N/OCc3ccc4nc(-c5ccccc5)c(Nc5ccc(C(=O)O)cc5)n4c3)cc2)nc1` [XZ706, (E)-4-((6-((((4-(5-cyanopyridin-2-yl)benzylidene)amino)oxy)methyl)-2-phenylimidazo[1,2-a]pyridin-3-yl)amino)benzoic acid], the values for the concentration for half-maximal inhibition (IC50) on TDP1 [5] (setting [7]) and on TDP2 [1] (setting [7]) were 17.4 ± 3.2 µM and 62.1 ± 10.1 µM, respectively. The “FC (fold change)” value on TDP1 [5] (setting [8]) stood at 4. The “loss of TDP1 potency relative to 102” value on TDP1 [5] (fold loss versus 102) is reported as “about 2 fold”. In addition, the synergy with camptothecin result in experiment [3] is “exhibit synergy with camptothecin”.
As for `N#Cc1ccc(-c2ccc(/C=N\OCc3ccc(-c4nc5cc(-c6ccccc6)ccn5c4Nc4ccc(C(=O)O)cc4)cc3)cc2)nc1` [XZ708, (Z)-4-((2-(4-((((4-(5-Cyanopyridin-2-yl)benzylidene)amino)oxy)methyl)phenyl)-7-phenylimidazo[1,2-a]pyridin-3-yl)amino)benzoic acid], the “FC (fold change)” value at TDP1 [5] (setting [8]) is greater than 18. Further, the IC50 on TDP2 [1] (setting [7]) is greater than 100 µM. Further, the synergy with camptothecin entry in experiment [3] was “exhibit synergy with camptothecin”.
Consider `N#Cc1ccc(-c2ccc(Cn3cc(-c4ccc(-c5nc6ccccn6c5Nc5ccc(C(=O)O)cc5)cc4)nn3)cc2)nc1` [XZ719, 4-((2-(4-(1-(4-(5-Cyanopyridin-2-yl)benzyl)-1H-1,2,3-triazol-4-yl)phenyl)imidazo[1,2-a]pyridin-3-yl)amino)benzoic acid], for which the IC50 on TDP1 [5] (setting [6]) came out at 21.6 ± 5 µM; at TDP2 [1] (setting [6]), 62.4 ± 18.6 µM. For the same compound, the “FC (fold change)” value at TDP1 [5] (setting [9]) is 3. For the same compound, the synergy with camptothecin result in experiment [3] is “exhibit synergy with camptothecin”. For the same compound, on TDP2 [2], the TDP2 degrading activity entry was “exhibit TDP2 degrading activity”.
`N#Cc1ccc(-c2ccc(Cn3cc(-c4ccc5nc(-c6ccccc6)c(Nc6ccc(C(=O)O)cc6)n5c4)nn3)cc2)nc1` [XZ723, 4-((6-(1-(4-(5-Cyanopyridin-2-yl)benzyl)-1H-1,2,3-triazol-4-yl)-2-phenylimidazo[1,2-a]pyridin-3-yl)amino)benzoic acid]: the IC50 is 66.4 ± 3.7 µM on TDP1 [5] (setting [6]) and 69.1 ± 11.8 µM on TDP2 [1] (setting [6]). Further, the “FC (fold change)” value at TDP1 [5] (setting [9]) is 1. The TDP2 degrading activity entry on TDP2 [2] is recorded as “exhibit TDP2 degrading activity”.
Regarding `N#Cc1ccc(-c2ccc(CO/N=C/c3ccc(-c4nc5ccccn5c4Nc4ccc(C(=O)O)cc4)cc3)cc2)nc1` [XZ724], the half-inhibitory concentration (IC50) at TDP1 [5] (setting [6]) and at TDP2 [1] (setting [6]) was greater than 100 µM each time. For the same compound, the TDP1 degrading activity result at TDP1 [4] is “exhibit TDP1 degrading activity”.
With `N#Cc1ccc(-c2ccc(CO/N=C/c3ccc(-c4nc5cc(-c6ccccc6)ccn5c4Nc4ccc(C(=O)O)cc4)cc3)cc2)nc1` [XZ725], the IC50 on TDP1 [5] (setting [6]) was 25.6 ± 4.05 µM; on TDP2 [1] (setting [6]) it was greater than 100 µM. Further, the TDP1 degrading activity result on TDP1 [4] is “exhibit TDP1 degrading activity”. Besides, in experiment [3], the synergy with camptothecin entry is reported as “exhibit synergy with camptothecin”.
For `O=C(O)c1ccc(N(c2c(-c3ccccc3OS(=O)(=O)F)nc3cc(-c4ccccc4)ccn23)S(=O)(=O)F)cc1` [XZ731, 4-((Fluorosulfonyl)(2-(2-((fluorosulfonyl)oxy)phenyl)-7-phenylimidazo[1,2-a]pyridin-3-yl)amino)benzoic acid], the “inhibition of TDP1, primary screen” value on TDP1 [5] (111 μM, preincubation with TDP1 at room temperature overnight) was “inhibition”. Further, the IC50 was determined as 22.7 µM at TDP1 [5] (setting [10]) and 45.5 µM on TDP2 [1] (setting [10]). Also, the “selectivity compared with TDP2, secondary screen” value at TDP1 [5] (preincubation overnight at room temperature) is 2 fold. In addition, the “inhibition, secondary screen” value against TDP1 [5] (preincubation with TDP overnight at room temperature) is given as “μM inhibition”. For the same compound, the “inhibition of TDP1, secondary screen” value against TDP1 [5] (room temperature, preincubation 10 minutes) is “no inhibition”. The “inhibition of TDP2, primary screen” value at TDP2 [1] was “inhibition”. Further, the TDP2 degrading activity result at TDP2 [2] was “exhibit TDP2 degrading activity”.
As to `O=C(O)c1ccc(Nc2c(-c3ccccc3)nc3ccc(OS(=O)(=O)F)cn23)cc1` [XZ732, 4-((6-((Fluorosulfonyl)oxy)-2-phenylimidazo[1,2-a]pyridin-3-VA)amino)benzoic acid], the IC50 was greater than 100 µM at TDP1 [5] (setting [10]) and 65.8 µM at TDP2 [1] (setting [10]). At TDP2 [1], the “inhibition of TDP2, primary screen” value is on record as “inhibition”. Besides, the TDP2 degrading activity entry on TDP2 [2] is on record as “exhibit TDP2 degrading activity”.
With `O=S(=O)(F)c1ccc(Nc2c(-c3ccccc3)nc3ccccn23)cc1` [XZ734, 4-((2-Phenylimidazo[1,2-a]pyridin-3-yl)amino)benzenesulfonyl fluoride], the IC50 on TDP1 [5] (setting [10]) and on TDP2 [1] (setting [10]) was greater than 100 µM each time. Moreover, at TDP1 [4] (FIG. 39), the “TDP1 degradation by covalent inhibitors” value was “degrade TDP1”. For the same compound, the TDP1 degrading activity entry at TDP1 [4] was “exhibit TDP1 degrading activity”.
